Source: patent US7700593B2, “Imidazo- and triazolo-pyridine compounds and methods of use thereof” (Amgen Inc., priority 2006, dated 2010)
pIC50: −log10 of the molar value.

Tests used:
[1] = target: p38α (Homo sapiens, UniProt Q16539); test: p38 in-vitro HTRF enzyme assay; assay type: biochemical; conditions: IC50 value ranges
Method in brief: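 Activated recombinant human p38α with ATP and 100 nM GST-ATF2-Avitag, 1 h at RT in Tris pH 7.5/MgCl2 buffer; compound 10-point 3-fold series from about 1 μM final. HTRF 665/620 nm ratio; IC50 from 4-parameter fit, Ki via Cheng-Prusoff with experimental ATP Km.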

[2] = tested on: monocytes; test: Lipopolysaccharide-activated monocyte TNF production assay (LPS induced TNF release); assay type: cell-based, human; conditions: Homo sapiens, Monocyte; LPS induced TNF release from monocytes; read-out: LPS induced TNFa
Method in brief: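 Adherent monocytes from human PBMCs were pretreated with compound 60 min, then stimulated with E. coli LPS (30 ng/mL stock added) for 4 h at 37 °C. Supernatant TNF-α measured by sandwich ELISA; concentration giving 50% TNF reduction derived by polynomial fit.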

[3] = tested on: THP1 cells; test: Lipopolysaccharide-activated THP1 cell TNF production assay; assay type: cell-based, human; conditions: Homo sapiens, THP-1; LPS-induced TNF-α production in THP1 cells
Method in brief: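 THP1 cells at 1E6/mL were stimulated with LPS (1 μg/mL prepared stock) alongside 3-fold serially diluted compound for 3 h at 37 °C. Secreted TNF-α was quantified by electrochemiluminescence sandwich immunoassay. Percent of DMSO control was fitted to a 4-parameter logistic equation.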

p38α, sequence (Q16539 whole entry): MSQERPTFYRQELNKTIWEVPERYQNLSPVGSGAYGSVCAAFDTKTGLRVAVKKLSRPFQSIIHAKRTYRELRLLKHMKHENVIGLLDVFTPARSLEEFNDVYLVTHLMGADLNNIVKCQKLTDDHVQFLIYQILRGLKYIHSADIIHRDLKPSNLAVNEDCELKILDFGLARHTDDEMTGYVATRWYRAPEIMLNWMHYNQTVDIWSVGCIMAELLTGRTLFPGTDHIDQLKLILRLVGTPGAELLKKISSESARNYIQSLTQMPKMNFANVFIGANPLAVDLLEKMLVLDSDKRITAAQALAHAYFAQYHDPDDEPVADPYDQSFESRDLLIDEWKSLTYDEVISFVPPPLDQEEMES

pIC50 [1]	pIC50 [2]	pIC50 [3]	SMILES
> 7.60	7.00 to 7.60	7.00 to 7.60	Cc1ccc(C(=O)NC2CC2)cc1-c1ccn2c(-c3ccc(F)cc3C)ncc2c1 [Example 22, N-cyclopropyl-3-(3-(4-fluoro-2-methylphenyl)imidazo[1,5-a]pyridin-7-yl)-4-methylbenzamide]
7.00 to 7.60	6.00 to 6.60	6.00 to 6.60	Cc1ccc(C(=O)NC2(C)CC2)cc1-c1ccn2c(-c3ccc(S(C)(=O)=O)cc3)nnc2c1 [Example 13, 4-methyl-N-(1-methylcyclopropyl)-3-(3-(4-(methylsulfonyl)phenyl)[1,2,4]triazolo[4,3-a]pyridin-7-yl)benzamide]
> 7.60	6.60 to 7.00	7.00 to 7.60	Cc1ccc(C(=O)NC2CC2)cc1-c1ccn2c(C3CCOCC3)nnc2c1 [Example 97, N-cyclopropyl-4-methyl-3-(3-(tetrahydro-2H-pyran-4-yl)[1,2,4]triazolo[4,3-a]pyridin-7-yl)benzamide]
> 7.60	6.60 to 7.00	6.00 to 6.60	Cc1ccc(C(=O)NC2CC2)cc1-c1ccn2c(Nc3ccccc3)nnc2c1 [Example 66, N-cyclopropyl-4-methyl-3-(3-(phenylamino)[1,2,4]triazolo[4,3-a]pyridin-7-yl)benzamide]
> 7.60	> 7.60	> 7.60	Cc1ccc(C(=O)Nc2ccnn2C)cc1-c1ccn2c(-c3ccc(F)cc3C)nnc2c1 [Example 17, 3-(3-(4-fluoro-2-methylphenyl)[1,2,4]triazolo[4,3-a]pyridin-7-yl)-4-methyl-N-(1-methyl-1H-pyrazol-5-yl)benzamide]
